Data as given in patent US20130204033A1, “ANTIPROLIFERATIVE COMPOUNDS, CONJUGATES THEREOF, METHODS THEREFOR, AND USES THEREOF” (Medarex, Inc., priority 2009, published 2013).
pEC50: −log10 of the molar value. Where two headings read alike, the source gives them in different places.

Columns and labels:
Format in all cases: cell-based, human
[1] = system: Hep3B; test: 3H thymidine proliferation assay, Hep3B
Outline: (§1)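 Tumour cells were plated at 1.0×10^4 per well and, after 3 h, treated with threefold serial dilutions of compound or conjugate. Total incubation was 72 h, with a 1.0 μCi ^3H-thymidine pulse over the last 24 h. Counts gave the 50% inhibition concentration (EC50).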

[2] = system: LNCaP; test: 3H thymidine proliferation assay, LNCaP
Outline: as §1

[3] = system: U-87 MG; test: 3H thymidine proliferation assay, U-87 MG
Outline: as §1

[4] = system: UO-31; test: 3H thymidine proliferation assay, UO-31
Outline: as §1

[5] = system: H740; test: 3H thymidine proliferation assay, H740
Outline: as §1

[6] = system: DMS53; test: 3H thymidine proliferation assay, DMS53
Outline: as §1

[7] = system: ZR-75; test: 3H thymidine proliferation assay, ZR-75
Outline: as §1

[8] = system: HL-60; test: 3H thymidine proliferation assay, HL-60
Outline: as §1

[9] = system: CEM-C1; test: 3H thymidine proliferation assay, CEM-C1
Outline: as §1

[10] = system: Nomo-1; test: 3H thymidine proliferation assay, Nomo-1
Outline: as §1

[11] = system: U-87 MG; test: ATP luminescence proliferation assay, U-87 MG
Experimental: (§2) This example generally describes the procedures used to assay the antiproliferative activity of compounds of this invention or their conjugates. Human tumor cell lines were obtained from the American Type Culture Collection (ATCC), P.O. Box 1549, Manassas, Va. 20108, USA, and cultured according to instruction from the ATCC. Cells were seeded at 1.0×10^3 or 1.0×10^4 cells/well in 96-well plates for 3 h for ATP assays or ^3H thymidine assays, respectively. 1:3 serial dilutions of free (unconjugated) compounds or their conjugates were added to the wells. Plates were allowed to incubate for 24 to 72 h. The ^3H thymidine plates were pulsed with 1.0 μCi of ^3H-thymidine per well for the last 24 hours of the total incubation period, harvested, and read on a Top Count Scintillation Counter (Packard Instruments, Meriden, Conn.). ATP levels in the ATP plates were measured using the […]-GLO® Luminescent Cell Viability kit following the manufacturer's manual and read on a GLOMAX® 20/20 luminometer (both from Promega, Madison, Wis., USA). The EC50 values—the concentration at which an agent inhibits or reduces cell proliferation by 50% —were determined using PRISM™ software, version 4.0 (GraphPad Software, La Jolla, Calif., USA).
(§3) Using the ^3H thymidine or the ATP luminescence assay, or both, the activities of compounds of this invention were assayed against the following cancer cell lines: HCT-15 (colorectal cancer, multi-drug resistant (MDR)); Hep3B (liver cancer); LNCaP (prostate cancer, androgen receptor positive (AR^+)); MDA-MB-231 (breast cancer, estrogen receptor, progesterone receptor, and Her2 negative (triple negative)); A2058 (melanoma); U-87 MG (glioblastoma); NCI-H460 (NSCLC); A549 (NSCLC); HPAC (pancreatic cancer, primary); PC3 (prostate cancer, AR); BT474 (breast cancer, Her2 highly positive (Her2hi)); SKOV3 (ovarian cancer, Her2hi); 786-O (renal cancer); UO-31 (renal cancer, MDR); NCI-H740 (SCLC); DMS53 (SCLC); SK-BR3 (breast cancer, Her2hi); ZR-75 (breast cancer, estrogen receptor positive); OVCAR3 (ovarian cancer); HL-60 (APL); OVCAR8/Adr (ovarian cancer, MDR); CEM-Cl (ALL); Nomo-1 (AML); RPMI-8226 (MM)); Raji (lymphoma); SW-480 (colorectal cancer, metastatic); SW-620 (colorectal cancer); and H226 (lung cancer). (Not all compounds were assayed against all cell lines.)
(§4) Table 3 provides the data for the ATP luminescence proliferation assays, with an incubation period of 48, 72, or 96 h, as noted.

[12] = system: PC3; test: ATP luminescence proliferation assay, PC3
Experimental: as §2, §3, §4

[13] = system: BT474; test: ATP luminescence proliferation assay, BT474
Experimental: as §2, §3, §4

[14] = system: SKOV3; test: ATP luminescence proliferation assay, SKOV3
Experimental: as §2, §3, §4

[15] = system: UO-31; test: ATP luminescence proliferation assay, UO-31
Experimental: as §2, §3, §4

[16] = system: HL-60; test: ATP luminescence proliferation assay, HL-60
Outline: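 Read-out: luminescent ATP cell viability after 48, 72 or 96 h incubation, as noted, with 1:3 serial dilutions of unconjugated compounds or their conjugates. Plating was 1.0×10^3 cells/well, 3 h before dosing. EC50 = concentration giving 50% inhibition of proliferation.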

[17] = system: CEM-Cl; test: ATP luminescence proliferation assay, CEM-C1
Experimental: as §2, §3, §4

[18] = system: SW-480; test: ATP luminescence proliferation assay, SW-480
Experimental: as §2, §3, §4

[19] = 3H thymidine method, 72 h incubation, read-out: EC50, Hep3B
[20] = 3H thymidine method, 72 h incubation, read-out: EC50, LNCaP
[21] = 3H thymidine method, 72 h incubation, read-out: EC50, U-87 MG
[22] = 3H thymidine method, 72 h incubation, read-out: EC50, UO-31
[23] = 3H thymidine method, 72 h incubation, read-out: EC50, H740
[24] = 3H thymidine method, 72 h incubation, read-out: EC50, DMS53
[25] = 3H thymidine method, 72 h incubation, read-out: EC50, ZR-75
[26] = 3H thymidine method, 72 h incubation, read-out: EC50, HL-60
[27] = 3H thymidine method, 72 h incubation, read-out: EC50, CEM-C1
[28] = 3H thymidine method, 72 h incubation, read-out: EC50, Nomo-1
[29] = ATP luminescence, 72 h incubation, read-out: EC50 U-87 MG (72 h)
[30] = ATP luminescence, PC3, 48 h incubation, read-out: EC50 PC3 (48 h)
[31] = ATP luminescence, BT474, 48 h incubation, read-out: EC50 BT474 (48 h)
[32] = ATP luminescence, SKOV3, 72 h incubation, read-out: EC50 SKOV3 (72 h)
[33] = ATP luminescence, UO-31, 48 h incubation, read-out: EC50 UO-31 (48 h)
[34] = ATP luminescence, SW480, 96 h incubation, read-out: EC50 SW480 (96 h)

SMILES | pEC50 [1, 19] | pEC50 [2, 20] | pEC50 [3, 21] | pEC50 [4, 22] | pEC50 [5, 23] | pEC50 [6, 24] | pEC50 [7, 25] | pEC50 [8, 26] | pEC50 [9, 27] | pEC50 [10, 28] | pEC50 [11, 29] | pEC50 [12, 30] | pEC50 [13, 31] | pEC50 [14, 32] | pEC50 [15, 33] | pEC50 [18, 34] | also measured
CC[C@H](C)[C@H](NC(=O)[C@H]1CCCCN1C)C(=O)N(COC(=O)CC(C)C)[C@H](C[C@@H](OC(C)=O)c1nc(C(=O)N[C@@H](Cc2ccccc2)C(=O)OC)cs1)C(C)C [Compound 29] | 10.39 | 9.27 | 10.19 | 9.89 | 9.39 | 9.55 | 8.42 | 11.00 | 10.72 | 11.12 | 8.31 | 8.47 | 8.82 | 8.89 | 8.57 | 8.57 | pEC50 ([16]; ATP luminescence, HL-60, 48 h incubation, read-out: EC50 HL-60 (48 h)): 9.23; pEC50 ([17]; ATP luminescence, CEM-C1, 72 h incubation, read-out: EC50 CEM-C1 (72 h)): 9.07
CC[C@H](C)[C@H](NC(=O)[C@H]1CCCCN1C)C(=O)N(COC)[C@H](C[C@@H](OC)c1nc(C(=O)N[C@@H](Cc2ccccc2)C(=O)OC)cs1)C(C)C [Compound 29c] | 8.52 | 8.28 | 9.29 | 9.00 | 8.28 | 7.12 | 7.36 | 8.74 | 7.35 | 9.37 | 6.87 | 7.18 | 6.31 | 7.77 | 7.59 | 7.39 | pEC50 ([16]; ATP luminescence, HL-60, 72 h incubation, read-out: EC50 HL-60 (72 h)): 8.07; pEC50 ([17]; ATP luminescence, CEM-C1, 48 h incubation, read-out: EC50 CEM-C1 (48 h)): 7.70
CC[C@H](C)[C@H](NC(=O)[C@H]1CCCCN1C)C(=O)N(C)[C@H](C[C@@H](OC(C)=O)c1nc(C(=O)N[C@@H](Cc2ccc(N)cc2)CC(C)C(=O)O)cs1)C(C)C (stereo partly drawn) [Compound 36] | – | – | – | – | – | – | – | – | – | – | – | – | – | – | – | – | pEC50 ([1]; Homo sapiens, Hep3B, read-out: EC50, Hep3B, 3H thymidine method, 72 h incubation): 7.41; pEC50 ([2]; Homo sapiens, LNCaP, read-out: EC50, LNCaP, 3H thymidine method, 72 h incubation): 6.47; pEC50 ([3]; Homo sapiens, U-87 MG, read-out: EC50, U-87 MG, 3H thymidine method, 72 h incubation): 7.82; pEC50 ([4]; Homo sapiens, UO-31, read-out: EC50, UO-31, 3H thymidine method, 72 h incubation): < 7.00; pEC50 ([5]; Homo sapiens, read-out: EC50, H740, 3H thymidine method, 72 h incubation): < 7.00; pEC50 ([6]; Homo sapiens, DMS-53, read-out: EC50, DMS53, 3H thymidine method, 72 h incubation): < 7.00; pEC50 ([7]; Homo sapiens, ZR75, read-out: EC50, ZR-75, 3H thymidine method, 72 h incubation): < 7.00; pEC50 ([8]; Homo sapiens, HL-60, read-out: EC50, HL-60, 3H thymidine method, 72 h incubation): 6.97; pEC50 ([9]; Homo sapiens, CEM/C1, read-out: EC50, CEM-C1, 3H thymidine method, 72 h incubation): 7.36; pEC50 ([10]; Homo sapiens, NOMO-1, read-out: EC50, Nomo-1, 3H thymidine method, 72 h incubation): 6.91; pEC50 ([11]; Homo sapiens, 72 h, read-out: EC50 U-87 MG (72 h), ATP luminescence, U-87 MG, 72 h incubation): 7.43; pEC50 ([12]; Homo sapiens, PC-3, 48 h, read-out: EC50 PC3 (48 h), ATP luminescence, PC3, 48 h incubation): 7.11; pEC50 ([13]; Homo sapiens, BT-474, 48 h, read-out: EC50 BT474 (48 h), ATP luminescence, BT474, 48 h incubation): ~6.92; pEC50 ([14]; Homo sapiens, SK-OV-3, 72 h, read-out: EC50 SKOV3 (72 h), ATP luminescence, SKOV3, 72 h incubation): 7.35; pEC50 ([15]; Homo sapiens, UO-31, 48 h, read-out: EC50 UO-31 (48 h), ATP luminescence, UO-31, 48 h incubation): 8.06; pEC50 ([16]; Homo sapiens, HL-60, 48 h, read-out: EC50 HL-60 (48 h), ATP luminescence, HL-60, 48 h incubation): 6.94; pEC50 ([17]; Homo sapiens, CEM/C1, 72 h, read-out: EC50 CEM-C1 (72 h), ATP luminescence, CEM-C1, 72 h incubation): 7.40; pEC50 ([18]; Homo sapiens, SW480, 96 h, read-out: EC50 SW480 (96 h), ATP luminescence, SW480, 96 h incubation): 7.09
